{"source": "patent US10112918B2", "about": "“15-oxospiramilactone derivatives, preparation method and uses thereof” (Kunming Institute of Botany, The Chinese Academy of Sciences, priority 2013, dated 2018)", "assay_type_in_all_cases": "cell-based", "key": {"[1]": {"system": "A-549 (Human lung adenocarcinoma cells)", "assay": "MTT inhibition of tumor cell growth, A-549", "conditions": "Homo sapiens, A549, 48 h", "summary_of_the_method": "(§1)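 Seed 5000-10000 cells/well (adherent lines 12 h ahead); add compound at 40 μM or, for hits near 50% inhibition, 5 concentrations; incubate 48 h at 37° C; add MTT 4 h, dissolve in 10% SDS overnight; read 595 nm; derive IC50 by Reed-Muench.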"}, "[2]": {"system": "MCF-7 (human breast cancer cells)", "assay": "MTT inhibition of tumor cell growth, MCF-7", "conditions": "Homo sapiens, MCF7, 48 h", "summary_of_the_method": "as §1"}, "[3]": {"system": "SMMC-7721 (human hepatoma cells)", "assay": "MTT inhibition of tumor cell growth, SMMC-7721", "conditions": "Homo sapiens, SMMC-7721, 48 h", "summary_of_the_method": "as §1"}, "[4]": {"system": "SW-480 (human colon cancer cells)", "assay": "MTT inhibition of tumor cell growth, SW-480", "conditions": "Homo sapiens, SW480, 48 h", "summary_of_the_method": "as §1"}, "[5]": {"system": "Wnt signaling pathway (Top-Flash reporter gene)", "assay": "Top-Flash Wnt reporter gene assay in HEK293T cells with Wnt3a conditioned medium", "summary_of_the_method": "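HEK293T transfected with TOP-flash (5 ng/well) plus GFP plasmid for normalization, then treated 6 h with mouse Wnt3a conditioned medium from L cells, with or without compound. GFP-normalized luciferase minus DMSO-only background, scaled to Wnt-induced activity; IC50 at 0.5 relative residual activity from 4-parameter logistic fit.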"}, "[6]": {"conditions": "Table 1, 7-hydroxy derivatives of S-3"}, "[7]": {"conditions": "Table 2, derivatives having potential Michael reaction acceptor"}, "[8]": {"conditions": "Table 3, single Michael reaction acceptor, modified lactonic ring"}, "[9]": {"conditions": "Table 4, derivatives obtained by reduction of the lactonic ring"}, "[10]": {"conditions": "Table 5, derivatives having double Michael reaction acceptor"}, "[11]": {"conditions": "Table 7 (first), alkaloid derivatives"}}, "note": "Where two headings read alike, the source gives them in different places.", "data": [{"smiles": "C=C1C(=O)[C@]23CC[C@H]1CC2[C@@]12CCC[C@@](C)(COC1=O)C2C[C@H]3O", "note": "(some centres unmarked) [Compound 1, 15-oxospiramilactone]", "values": [{"measurement": "IC50", "setting": "[1]; [6]", "result": 3.22, "unit": "µM"}, {"measurement": "IC50", "setting": "[1]; [7]", "result": 3.22, "unit": "µM"}, {"measurement": "IC50", "setting": "[1]; [8]", "result": 3.22, "unit": "µM"}, {"measurement": "IC50", "setting": "[1]; [9]", "result": 3.22, "unit": "µM"}, {"measurement": "IC50", "setting": "[1]; [10]", "result": 3.22, "unit": "µM"}, {"measurement": "IC50", "setting": "[1]; [11]", "result": 3.22, "unit": "µM"}, {"measurement": "IC50", "setting": "[2]; [6]", "result": 3.25, "unit": "µM"}, {"measurement": "IC50", "setting": "[2]; [7]", "result": 3.25, "unit": "µM"}, {"measurement": "IC50", "setting": "[2]; [8]", "result": 3.25, "unit": "µM"}, {"measurement": "IC50", "setting": "[2]; [9]", "result": 3.25, "unit": "µM"}, {"measurement": "IC50", "setting": "[2]; [10]", "result": 3.25, "unit": "µM"}, {"measurement": "IC50", "setting": "[2]; [11]", "result": 3.25, "unit": "µM"}, {"measurement": "IC50", "setting": "[3]; [6]", "result": 3.96, "unit": "µM"}, {"measurement": "IC50", "setting": "[3]; [7]", "result": 3.96, "unit": "µM"}, {"measurement": "IC50", "setting": "[3]; [8]", "result": 3.96, "unit": "µM"}, {"measurement": "IC50", "setting": "[3]; [9]", "result": 3.96, "unit": "µM"}, {"measurement": "IC50", "setting": "[3]; [10]", "result": 3.96, "unit": "µM"}, {"measurement": "IC50", "setting": "[3]; [11]", "result": 3.96, "unit": "µM"}, {"measurement": "IC50", "setting": "[4]; Table 1, 7-hydroxy derivatives of S-3, read-out: IC50 SW-480", "result": 3.58, "unit": "µM"}, {"measurement": "IC50", "setting": "[4]; Table 2, derivatives having potential Michael reaction acceptor, read-out: IC50 SW-480", "result": 3.58, "unit": "µM"}, {"measurement": "IC50", "setting": "[4]; Table 3, single Michael reaction acceptor, modified lactonic ring, read-out: IC50 SW-480", "result": 3.58, "unit": "µM"}, {"measurement": "IC50", "setting": "[4]; Table 4, derivatives obtained by reduction of the lactonic ring, read-out: IC50 SW-480", "result": 3.58, "unit": "µM"}, {"measurement": "IC50", "setting": "[4]; Table 5, derivatives having double Michael reaction acceptor, read-out: IC50 SW-480", "result": 3.58, "unit": "µM"}, {"measurement": "IC50", "setting": "[4]; Table 6, 7-hydroxyl derivatives and controls, read-out: IC50 SW-480, 7-hydroxyl derivatives", "result": 2.99, "unit": "µM"}, {"measurement": "IC50", "setting": "[4]; Table 7 (first), alkaloid derivatives, read-out: IC50 SW-480", "result": 3.58, "unit": "µM"}, {"measurement": "IC50", "setting": "[5]; Homo sapiens, HEK-293T, 6 h, Table 7 (second), derivatives modified on 7-hydroxyl of S-3, HEK293T, Wnt3a conditioned medium, 6 h, read-out: IC50 (μM), inhibitory activity on the Wnt signaling pathway", "result": "18.4 ± 1.82", "unit": "µM"}, {"measurement": "IC50", "setting": "[5]; Homo sapiens, HEK-293T, 6 h, Table 8, HEK293T, Wnt3a conditioned medium, 6 h, read-out: IC50 (μM), inhibitory activity on the Wnt signaling pathway", "result": "18.7 ± 0.58", "unit": "µM"}, {"measurement": "IC50", "setting": "[5]; Homo sapiens, HEK-293T, 6 h, Table 9, HEK293T, Wnt3a conditioned medium, 6 h, read-out: IC50(μM), inhibitory activity on the Wnt signaling pathway", "result": "18 ± 0.28", "unit": "µM"}, {"measurement": "IC50", "setting": "[5]; Homo sapiens, HEK-293T, 6 h, Table 10, HEK293T, Wnt3a conditioned medium, 6 h, read-out: IC50 (μM), inhibitory activity on the Wnt signaling pathway", "result": "13.9 ± 2.01", "unit": "µM"}, {"measurement": "IC50", "setting": "[5]; Homo sapiens, HEK-293T, 6 h, Table 11, HEK293T, Wnt3a conditioned medium, 6 h, read-out: IC50 (μM), inhibitory activity on the Wnt signaling pathway", "result": "22.5 ± 0.56", "unit": "µM"}, {"measurement": "IC50", "setting": "[5]; Homo sapiens, HEK-293T, footnotes of Tables 8 and 9: S-3 control in the run of the compounds marked a or b, read-out: corresponding IC50 value of S-3 (Wnt signaling pathway)", "result": 18.4, "unit": "µM"}, {"measurement": "IC50", "setting": "[5]; footnotes of Tables 8 and 9: S-3 control in the run of the compounds marked a or b, listed as S-3, read-out: corresponding IC50 value of S-3 (Wnt signaling pathway)", "result": 15.3, "unit": "µM"}]}]}
